In ChEMBL document CHEMBL1148243, “Indoline derivatives as 5-HT(2C) receptor agonists” (Bioorg Med Chem Lett, 2004):

How the values were obtained:
[1] = test system: Rattus norvegicus; assay: Ability of compound to decrease food intake in rats after subcutaneous administration; type: functional; conditions: sc, read-out: MED
[2] = test system: Rattus norvegicus; assay: Ability of compound to decrease food intake in rats after oral administration; type: functional; conditions: read-out: MED
[3] = biological target: T1, 5-hydroxytryptamine receptor 2A (Homo sapiens, UniProt P28223); assay: Affinity for human 5-hydroxytryptamine 2A receptor expressed in mammalian cell line
T1 sequence (P28223 whole entry): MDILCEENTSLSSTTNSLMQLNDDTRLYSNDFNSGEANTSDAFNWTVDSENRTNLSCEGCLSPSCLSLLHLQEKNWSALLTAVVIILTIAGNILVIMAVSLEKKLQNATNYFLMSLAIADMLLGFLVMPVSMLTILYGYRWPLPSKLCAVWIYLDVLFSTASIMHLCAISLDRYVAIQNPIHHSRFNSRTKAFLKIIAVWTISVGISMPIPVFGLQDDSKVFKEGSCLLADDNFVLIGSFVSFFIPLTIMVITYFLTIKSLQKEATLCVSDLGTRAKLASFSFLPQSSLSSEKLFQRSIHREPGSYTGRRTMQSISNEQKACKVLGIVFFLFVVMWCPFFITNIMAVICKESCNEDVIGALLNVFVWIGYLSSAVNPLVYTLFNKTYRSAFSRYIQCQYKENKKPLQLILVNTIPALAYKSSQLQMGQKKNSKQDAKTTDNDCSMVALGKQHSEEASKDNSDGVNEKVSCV

[4] = biological target: T2, 5-hydroxytryptamine receptor 2B (Homo sapiens, UniProt P41595); assay: Affinity for human 5-hydroxytryptamine 2B receptor expressed in mammalian cell line
T2 sequence (P41595 whole entry): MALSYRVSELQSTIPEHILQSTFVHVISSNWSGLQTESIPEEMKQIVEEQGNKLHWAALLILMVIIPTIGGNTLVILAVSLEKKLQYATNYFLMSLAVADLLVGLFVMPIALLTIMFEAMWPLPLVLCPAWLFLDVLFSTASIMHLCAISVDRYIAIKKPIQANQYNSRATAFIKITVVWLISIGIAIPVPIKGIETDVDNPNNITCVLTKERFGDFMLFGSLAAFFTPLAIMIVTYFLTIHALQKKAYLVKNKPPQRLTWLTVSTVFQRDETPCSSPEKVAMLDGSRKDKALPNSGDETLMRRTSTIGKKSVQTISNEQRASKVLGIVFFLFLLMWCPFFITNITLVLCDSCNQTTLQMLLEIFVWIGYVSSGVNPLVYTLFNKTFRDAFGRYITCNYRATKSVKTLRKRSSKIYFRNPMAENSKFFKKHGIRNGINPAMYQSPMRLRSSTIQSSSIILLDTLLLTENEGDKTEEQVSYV

[5] = biological target: T2, 5-hydroxytryptamine receptor 2B; assay: Relative efficacy against human 5-hydroxytryptamine 2B receptor expressed in CHO cells using fluorometric imaging plate reader relative to 10 uM 5-HT; type: functional, cell-based
[6] = biological target: T3, 5-hydroxytryptamine receptor 2C (Homo sapiens, UniProt P28335); assay: Affinity for human 5-hydroxytryptamine 2C receptor expressed in mammalian cell line
T3 sequence (P28335 whole entry): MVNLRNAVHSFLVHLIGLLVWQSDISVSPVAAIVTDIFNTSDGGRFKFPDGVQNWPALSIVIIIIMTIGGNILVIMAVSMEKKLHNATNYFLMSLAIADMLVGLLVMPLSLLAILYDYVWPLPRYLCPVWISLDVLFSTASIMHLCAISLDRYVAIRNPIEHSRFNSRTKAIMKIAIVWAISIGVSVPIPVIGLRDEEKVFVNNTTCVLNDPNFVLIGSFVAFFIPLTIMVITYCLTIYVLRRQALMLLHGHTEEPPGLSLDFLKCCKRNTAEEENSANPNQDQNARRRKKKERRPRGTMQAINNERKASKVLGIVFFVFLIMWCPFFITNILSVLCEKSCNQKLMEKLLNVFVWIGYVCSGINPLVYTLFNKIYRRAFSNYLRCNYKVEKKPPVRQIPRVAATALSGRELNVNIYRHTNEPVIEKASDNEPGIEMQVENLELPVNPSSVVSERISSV

[7] = biological target: T1, 5-hydroxytryptamine receptor 2A; assay: Functional activity against human 5-hydroxytryptamine 2A receptor expressed in CHO cells using fluorometric imaging plate reader; type: cell-based
[8] = biological target: T3, 5-hydroxytryptamine receptor 2C; assay: Functional activity against human 5-hydroxytryptamine 2C receptor expressed in CHO cells using fluorometric imaging plate reader; type: cell-based
[9] = biological target: T1, 5-hydroxytryptamine receptor 2A; assay: Relative efficacy against human 5-hydroxytryptamine 2A receptor expressed in CHO cells using fluorometric imaging plate reader relative to 10 uM 5-HT; type: functional, cell-based
[10] = biological target: T2, 5-hydroxytryptamine receptor 2B; assay: Functional activity against human 5-hydroxytryptamine 2B receptor expressed in CHO cells using fluorometric imaging plate reader; type: cell-based

Question: Which results are given for `Clc1cccc(N2CCNCC2)c1` [CHLOROPHENYLPIPERAZINE]?
Answer: minimal effective dose [1]: 1 mg/kg; minimal effective dose [2]: 10 mg/kg

Question: Which results are given for `C[C@H](N)CN1CCc2cc(F)c(Cl)cc21`?
Answer: Ki [3]: 167 nM; Ki [4]: 31 nM; Relative efficacy [5]: 77%; Ki [6]: 14 nM; EC50 [7]: 367 nM; EC50 [8]: 31 nM; Relative efficacy [9]: 66%; EC50 [10]: 7.3 nM

Question: What does the source list for `C[C@H](N)Cn1ccc2cc(F)c(Cl)cc21`?
Answer: Ki [3]: 38 nM; Ki [4]: 5.1 nM; Relative efficacy [5]: 71%; Ki [6]: 2.3 nM; EC50 [8]: 18 nM; Relative efficacy [9]: 72%; EC50 [10]: 4.3 nM

Question: `CSc1ccc2c(c1)N(C[C@H](C)N)CC2` was tested. Which Ki [3] did it give?
Answer: 171 nM

Question: What about the Ki [4] of the same compound?
Answer: 89 nM

Question: And the Relative efficacy [5]?
Answer: 78%

Question: And the Ki [6]?
Answer: 5.7 nM

Question: What about the EC50 [7] of the same compound?
Answer: 164 nM

Question: And the EC50 [8]?
Answer: 26 nM

Question: What about the Relative efficacy [9] of the same compound?
Answer: 72%

Question: And the EC50 [10]?
Answer: 10 nM

Question: What does the source list for `CCSc1cc2c(cc1F)CCN2C[C@H](C)N`?
Answer: Ki [3]: 58 nM; Ki [4]: 62 nM; Relative efficacy [5]: 66%; Ki [6]: 6.4 nM; EC50 [7]: 181 nM; EC50 [8]: 21 nM; Relative efficacy [9]: 80%; EC50 [10]: 31 nM

Question: Which results are given for `CSc1cc2c(cc1F)CCN2C[C@H](C)N`?
Answer: Ki [3]: 53 nM; Ki [4]: 21 nM; Relative efficacy [5]: 72%; Ki [6]: 3.2 nM; EC50 [7]: 76 nM; EC50 [8]: 6.7 nM; Relative efficacy [9]: 87%; minimal effective dose [1]: 0.3 mg/kg; EC50 [10]: 4.1 nM; minimal effective dose [2]: 3 mg/kg

Question: How did the Ki [3] turn out when `C[C@H](N)CN1CCc2ccc3c(c21)CCO3` was run?
Answer: 112 nM

Question: What about the Ki [4] of the same compound?
Answer: 49 nM

Question: What about the Relative efficacy [5] of the same compound?
Answer: 74%

Question: And the Ki [6]?
Answer: 8.7 nM

Question: And the EC50 [7]?
Answer: 62 nM

Question: And the EC50 [8]?
Answer: 4.5 nM

Question: And the Relative efficacy [9]?
Answer: 81%

Question: And the minimal effective dose [1]?
Answer: 0.1 mg/kg

Question: What about the EC50 [10] of the same compound?
Answer: 3 nM

Question: What about the minimal effective dose [2] of the same compound?
Answer: 1 mg/kg

Question: Which results are given for `C[C@H](N)CN1CCc2ccc(Cl)cc21`?
Answer: Ki [3]: 364 nM; Ki [4]: 54 nM; Relative efficacy [5]: 76%; Ki [6]: 13 nM; EC50 [7]: 602 nM; EC50 [8]: 44 nM; Relative efficacy [9]: 55%; EC50 [10]: 6.5 nM

Question: Which Ki [3] does the source give for `CCSc1ccc2c(c1)N(C[C@H](C)N)CC2` here?
Answer: 184 nM

Question: What about the Ki [4] of the same compound?
Answer: 189 nM

Question: What about the Relative efficacy [5] of the same compound?
Answer: 67%

Question: What about the Ki [6] of the same compound?
Answer: 16 nM

Question: And the EC50 [7]?
Answer: 378 nM

Question: And the EC50 [8]?
Answer: 40 nM

Question: And the Relative efficacy [9]?
Answer: 71%

Question: And the EC50 [10]?
Answer: 72 nM

Question: With `C[C@H](N)CN1CCc2ccc(Br)cc21` as the compound, how does the Ki [3] read?
Answer: 351 nM

Question: And the Ki [4]?
Answer: 46 nM

Question: And the Relative efficacy [5]?
Answer: 78%

Question: And the Ki [6]?
Answer: 24 nM

Question: And the EC50 [7]?
Answer: 719 nM

Question: What about the EC50 [8] of the same compound?
Answer: 44 nM

Question: And the Relative efficacy [9]?
Answer: 54%

Question: What about the minimal effective dose [1] of the same compound?
Answer: 3 mg/kg

Question: And the EC50 [10]?
Answer: 11 nM

Question: What about the minimal effective dose [2] of the same compound?
Answer: 30 mg/kg

Question: Which Ki [3] does the source give for `C[C@H](N)CN1CCc2cc(F)c(I)cc21` here?
Answer: 139 nM

Question: What about the Ki [4] of the same compound?
Answer: 38 nM

Question: What about the Relative efficacy [5] of the same compound?
Answer: 71%

Question: And the Ki [6]?
Answer: 17 nM

Question: And the EC50 [7]?
Answer: 432 nM

Question: And the EC50 [8]?
Answer: 64 nM

Question: And the Relative efficacy [9]?
Answer: 54%

Question: And the EC50 [10]?
Answer: 22 nM

Question: Which Ki [3] does the source give for `C[C@H](N)CN1CCc2cc(F)c(C(F)(F)F)cc21` here?
Answer: 432 nM

Question: And the Ki [4]?
Answer: 88 nM

Question: What about the Relative efficacy [5] of the same compound?
Answer: 86%

Question: And the Ki [6]?
Answer: 26 nM

Question: What about the EC50 [7] of the same compound?
Answer: 1060 nM

Question: And the EC50 [8]?
Answer: 130 nM

Question: What about the Relative efficacy [9] of the same compound?
Answer: 45%

Question: What about the EC50 [10] of the same compound?
Answer: 49 nM

Question: Which Ki [3] does the source give for `C[C@H](N)CN1CCc2ccc3c(c21)CCCO3` here?
Answer: 395 nM

Question: And the Ki [4]?
Answer: 355 nM

Question: What about the Relative efficacy [5] of the same compound?
Answer: 67%

Question: And the Ki [6]?
Answer: 38 nM

Question: What about the EC50 [7] of the same compound?
Answer: 125 nM

Question: What about the EC50 [8] of the same compound?
Answer: 28 nM

Question: And the Relative efficacy [9]?
Answer: 71%

Question: What about the EC50 [10] of the same compound?
Answer: 36 nM
